# Source: patent publication US9708314B2, “Heterocyclic amide compound” (NISSAN CHEMICAL INDUSTRIES, LTD., priority 2013, dated 2017)
# Experiments:
# Format in all cases: in vivo
# Alopecurus myosuroides = test: Test Example 4: herbicidal effect by application to foliage (diluvial soil, plastic box); conditions: for J (Alopecurus myosuroides) herbicidal effect: application herbicide amount 320 g/ha; for J (Alopecurus myosuroides) herbicidal effect grade: foliage application
# Summary of the method: (§1)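 Emulsion-formulated compound, diluted to a predetermined g/ha dose, applied by small sprayer to leaves and stems of 14-day-old seedlings grown in sterilized diluvial soil. Effect rated on 0–5 herbicidal-ratio scale three weeks on.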
# Setaria viridis = test: as above; conditions: for G (Setaria viridis) herbicidal effect: application herbicide amount 320 g/ha; for G (Setaria viridis) herbicidal effect grade: foliage application
# Summary of the method: as §1
# Galium spurium = test: as above; conditions: for Q (Galium spurium) herbicidal effect: application herbicide amount 320 g/ha; for Q (Galium spurium) herbicidal effect grade: foliage application
# Summary of the method: as §1
# Amaranthus retroflexus = test: as above; conditions: for N (Amaranthus retroflexus) herbicidal effect: application herbicide amount 320 g/ha; for N (Amaranthus retroflexus) herbicidal effect grade: foliage application
# Summary of the method: as §1
# Stellaria media = test: as above; conditions: for P (Stellaria media) herbicidal effect: application herbicide amount 320 g/ha; for P (Stellaria media) herbicidal effect grade: foliage application
# Summary of the method: as §1
# Digitaria ciliaris = test: as above; conditions: for F (Digitaria ciliaris) herbicidal effect: application herbicide amount 320 g/ha; for F (Digitaria ciliaris) herbicidal effect grade: foliage application
# Summary of the method: as §1
# Apera spica-venti. = test: as above; conditions: for L (Apera spica-venti.) herbicidal effect: application herbicide amount 320 g/ha; for L (Apera spica-venti.) herbicidal effect grade: foliage application
# Summary of the method: as §1
# Veronica persica = test: as above; conditions: for R (Veronica persica) herbicidal effect: application herbicide amount 320 g/ha; for R (Veronica persica) herbicidal effect grade: foliage application
# Summary of the method: as §1
# Lolium multiflorum Lam. = test: as above; conditions: for K (Lolium multiflorum Lam.) herbicidal effect: application herbicide amount 320 g/ha; for K (Lolium multiflorum Lam.) herbicidal effect grade: foliage application
# Summary of the method: as §1
# Avena fatua = test: as above; conditions: for I (Avena fatua) herbicidal effect: application herbicide amount 320 g/ha; for I (Avena fatua) herbicidal effect grade: foliage application
# Summary of the method: as §1
# Abutilon theophrasti = test: as above; conditions: for M (Abutilon theophrasti) herbicidal effect: application herbicide amount 320 g/ha; for M (Abutilon theophrasti) herbicidal effect grade: foliage application
# Summary of the method: as §1
# [1] = test system: directly sowed Oryza sativa; test: Test Example 3: effect on crop by application to foliage (Wagner pot, water depth 0.1-0.5 cm); conditions: Nineteenth Table; for b (directly sowed Oryza sativa) effect on crop grade: application herbicide amount 320 g/ha; for b (effect on crop grade): application to foliage
# Summary of the method: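 Three weeks after spraying, each species was graded 0–5 for herbicidal ratio, 5 being 90% or more. Application: water-diluted emulsifiable concentrate at a fixed g/ha to foliage of 14-day-old greenhouse (25–30 °C) plants in alluvial soil.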
# [2] = Application herbicide amount 288 g/ha
# [3] = application to foliage, 141 g/ha
compound,measurement,setting,value
CC(C)c1nnc2c(C(=O)Nc3nnco3)ccc(C(F)(F)F)n12 [1-050],J (Alopecurus myosuroides) herbicidal effect,Alopecurus myosuroides; application to foliage,2 (Herbicidal ratio of 20% or more and less than 40%)
same,G (Setaria viridis) herbicidal effect,Setaria viridis; application to foliage,4 (Herbicidal ratio of 70% or more and less than 90%)
same,Q (Galium spurium) herbicidal effect,Galium spurium; application to foliage,2 (Herbicidal ratio of 20% or more and less than 40%)
same,N (Amaranthus retroflexus) herbicidal effect,Amaranthus retroflexus; application to foliage,5 (Herbicidal ratio of 90% or more (almost completely withered))
same,P (Stellaria media) herbicidal effect,Stellaria media; application to foliage,5 (Herbicidal ratio of 90% or more (almost completely withered))
same,F (Digitaria ciliaris) herbicidal effect,Digitaria ciliaris; application to foliage,5 (Herbicidal ratio of 90% or more (almost completely withered))
same,L (Apera spica-venti.) herbicidal effect,Apera spica-venti.; application to foliage,3 (Herbicidal ratio of 40% or more and less than 70%)
same,R (Veronica persica) herbicidal effect,Veronica persica; application to foliage,5 (Herbicidal ratio of 90% or more (almost completely withered))
same,K (Lolium multiflorum Lam.) herbicidal effect,Lolium multiflorum Lam.; application to foliage,3 (Herbicidal ratio of 40% or more and less than 70%)
same,I (Avena fatua) herbicidal effect,Avena fatua; application to foliage,3 (Herbicidal ratio of 40% or more and less than 70%)
same,M (Abutilon theophrasti) herbicidal effect,Abutilon theophrasti; application to foliage,5 (Herbicidal ratio of 90% or more (almost completely withered))
same,b (directly sowed Oryza sativa) effect on crop grade,[1],1 (Herbicidal ratio of 5% or more and less than 20%)
CC(C)c1nnc2c(C(=O)Nc3nnc(C4CC4)o3)ccc(C(F)(F)F)n12 [1-051],J (Alopecurus myosuroides) herbicidal effect,Alopecurus myosuroides; application to foliage,0 (Herbicidal ratio of 5% or less (almost no effect))
same,G (Setaria viridis) herbicidal effect,Setaria viridis; application to foliage,3 (Herbicidal ratio of 40% or more and less than 70%)
same,Q (Galium spurium) herbicidal effect,Galium spurium; application to foliage,2 (Herbicidal ratio of 20% or more and less than 40%)
same,N (Amaranthus retroflexus) herbicidal effect,Amaranthus retroflexus; application to foliage,3 (Herbicidal ratio of 40% or more and less than 70%)
same,P (Stellaria media) herbicidal effect,Stellaria media; application to foliage,3 (Herbicidal ratio of 40% or more and less than 70%)
same,F (Digitaria ciliaris) herbicidal effect,Digitaria ciliaris; application to foliage,3 (Herbicidal ratio of 40% or more and less than 70%)
same,L (Apera spica-venti.) herbicidal effect,Apera spica-venti.; application to foliage,1 (Herbicidal ratio of 5% or more and less than 20%)
same,R (Veronica persica) herbicidal effect,Veronica persica; application to foliage,3 (Herbicidal ratio of 40% or more and less than 70%)
same,K (Lolium multiflorum Lam.) herbicidal effect,Lolium multiflorum Lam.; application to foliage,1 (Herbicidal ratio of 5% or more and less than 20%)
same,I (Avena fatua) herbicidal effect,Avena fatua; application to foliage,1 (Herbicidal ratio of 5% or more and less than 20%)
same,M (Abutilon theophrasti) herbicidal effect,Abutilon theophrasti; application to foliage,5 (Herbicidal ratio of 90% or more (almost completely withered))
same,b (directly sowed Oryza sativa) effect on crop grade,[1],0 (Herbicidal ratio of 5% or less (almost no effect))
COCCc1nnc(NC(=O)c2ccc(C(F)(F)F)n3c(C(C)C)nnc23)o1 [1-052],J (Alopecurus myosuroides) herbicidal effect,Alopecurus myosuroides; application to foliage,1 (Herbicidal ratio of 5% or more and less than 20%)
same,G (Setaria viridis) herbicidal effect,Setaria viridis; application to foliage,1 (Herbicidal ratio of 5% or more and less than 20%)
same,Q (Galium spurium) herbicidal effect,Galium spurium; application to foliage,1 (Herbicidal ratio of 5% or more and less than 20%)
same,N (Amaranthus retroflexus) herbicidal effect,Amaranthus retroflexus; application to foliage,4 (Herbicidal ratio of 70% or more and less than 90%)
same,P (Stellaria media) herbicidal effect,Stellaria media; application to foliage,2 (Herbicidal ratio of 20% or more and less than 40%)
same,F (Digitaria ciliaris) herbicidal effect,Digitaria ciliaris; application to foliage,3 (Herbicidal ratio of 40% or more and less than 70%)
same,L (Apera spica-venti.) herbicidal effect,Apera spica-venti.; application to foliage,3 (Herbicidal ratio of 40% or more and less than 70%)
same,R (Veronica persica) herbicidal effect,Veronica persica; application to foliage,3 (Herbicidal ratio of 40% or more and less than 70%)
same,K (Lolium multiflorum Lam.) herbicidal effect,Lolium multiflorum Lam.; application to foliage,1 (Herbicidal ratio of 5% or more and less than 20%)
same,I (Avena fatua) herbicidal effect,Avena fatua; application to foliage,0 (Herbicidal ratio of 5% or less (almost no effect))
same,M (Abutilon theophrasti) herbicidal effect,Abutilon theophrasti; application to foliage,4 (Herbicidal ratio of 70% or more and less than 90%)
same,b (directly sowed Oryza sativa) effect on crop grade,[1],0 (Herbicidal ratio of 5% or less (almost no effect))
Cc1nnc(NC(=O)c2ccc(C(F)F)n3c(C(C)C)nnc23)o1 [1-053],J (Alopecurus myosuroides) herbicidal effect,Alopecurus myosuroides; application to foliage,0 (Herbicidal ratio of 5% or less (almost no effect))
same,G (Setaria viridis) herbicidal effect,Setaria viridis; application to foliage,2 (Herbicidal ratio of 20% or more and less than 40%)
same,Q (Galium spurium) herbicidal effect,Galium spurium; application to foliage,2 (Herbicidal ratio of 20% or more and less than 40%)
same,N (Amaranthus retroflexus) herbicidal effect,Amaranthus retroflexus; application to foliage,4 (Herbicidal ratio of 70% or more and less than 90%)
same,P (Stellaria media) herbicidal effect,Stellaria media; application to foliage,2 (Herbicidal ratio of 20% or more and less than 40%)
same,F (Digitaria ciliaris) herbicidal effect,Digitaria ciliaris; application to foliage,3 (Herbicidal ratio of 40% or more and less than 70%)
same,L (Apera spica-venti.) herbicidal effect,Apera spica-venti.; application to foliage,0 (Herbicidal ratio of 5% or less (almost no effect))
same,R (Veronica persica) herbicidal effect,Veronica persica; application to foliage,4 (Herbicidal ratio of 70% or more and less than 90%)
same,K (Lolium multiflorum Lam.) herbicidal effect,Lolium multiflorum Lam.; application to foliage,0 (Herbicidal ratio of 5% or less (almost no effect))
same,I (Avena fatua) herbicidal effect,Avena fatua; application to foliage,1 (Herbicidal ratio of 5% or more and less than 20%)
same,M (Abutilon theophrasti) herbicidal effect,Abutilon theophrasti; application to foliage,4 (Herbicidal ratio of 70% or more and less than 90%)
same,b (directly sowed Oryza sativa) effect on crop grade,[1],0 (Herbicidal ratio of 5% or less (almost no effect))
C=CCSc1nnc2c(C(=O)Nc3nnco3)ccc(C(F)(F)F)n12 [1-128],J (Alopecurus myosuroides) herbicidal effect grade,Alopecurus myosuroides; [2],1 (Herbicidal ratio of 5% or more and less than 20%)
same,G (Setaria viridis) herbicidal effect grade,Setaria viridis; [2],2 (Herbicidal ratio of 20% or more and less than 40%)
same,Q (Galium spurium) herbicidal effect grade,Galium spurium; [2],1 (Herbicidal ratio of 5% or more and less than 20%)
same,N (Amaranthus retroflexus) herbicidal effect grade,Amaranthus retroflexus; [2],3 (Herbicidal ratio of 40% or more and less than 70%)
same,P (Stellaria media) herbicidal effect grade,Stellaria media; [2],5 (Herbicidal ratio of 90% or more (almost completely withered))
same,F (Digitaria ciliaris) herbicidal effect grade,Digitaria ciliaris; [2],5 (Herbicidal ratio of 90% or more (almost completely withered))
same,L (Apera spica-venti.) herbicidal effect grade,Apera spica-venti.; [2],1 (Herbicidal ratio of 5% or more and less than 20%)
same,R (Veronica persica) herbicidal effect grade,Veronica persica; [2],5 (Herbicidal ratio of 90% or more (almost completely withered))
same,K (Lolium multiflorum Lam.) herbicidal effect grade,Lolium multiflorum Lam.; [2],1 (Herbicidal ratio of 5% or more and less than 20%)
same,I (Avena fatua) herbicidal effect grade,Avena fatua; [2],0 (Herbicidal ratio of 5% or less (almost no effect))
same,M (Abutilon theophrasti) herbicidal effect grade,Abutilon theophrasti; [2],3 (Herbicidal ratio of 40% or more and less than 70%)
same,b (effect on crop grade),[1]; application herbicide amount 288 g/ha,0 (Herbicidal ratio of 5% or less (almost no effect))
Cc1cc(C(=O)Nc2nnnn2C)c2nnc(C(C)C)n2c1C(F)(F)F [2-050],J (Alopecurus myosuroides) herbicidal effect grade,Alopecurus myosuroides; 192 g/ha,0 (Herbicidal ratio of 5% or less (almost no effect))
same,G (Setaria viridis) herbicidal effect grade,Setaria viridis; 192 g/ha,1 (Herbicidal ratio of 5% or more and less than 20%)
same,Q (Galium spurium) herbicidal effect grade,Galium spurium; 192 g/ha,0 (Herbicidal ratio of 5% or less (almost no effect))
same,N (Amaranthus retroflexus) herbicidal effect grade,Amaranthus retroflexus; 192 g/ha,2 (Herbicidal ratio of 20% or more and less than 40%)
same,P (Stellaria media) herbicidal effect grade,Stellaria media; 192 g/ha,3 (Herbicidal ratio of 40% or more and less than 70%)
same,F (Digitaria ciliaris) herbicidal effect grade,Digitaria ciliaris; 192 g/ha,3 (Herbicidal ratio of 40% or more and less than 70%)
same,L (Apera spica-venti.) herbicidal effect grade,Apera spica-venti.; 192 g/ha,0 (Herbicidal ratio of 5% or less (almost no effect))
same,R (Veronica persica) herbicidal effect grade,Veronica persica; 192 g/ha,3 (Herbicidal ratio of 40% or more and less than 70%)
same,K (Lolium multiflorum Lam.) herbicidal effect grade,Lolium multiflorum Lam.; 192 g/ha,0 (Herbicidal ratio of 5% or less (almost no effect))
same,I (Avena fatua) herbicidal effect grade,Avena fatua; 192 g/ha,2 (Herbicidal ratio of 20% or more and less than 40%)
same,M (Abutilon theophrasti) herbicidal effect grade,Abutilon theophrasti; 192 g/ha,3 (Herbicidal ratio of 40% or more and less than 70%)
same,b (effect on crop grade),[1]; application herbicide amount 192 g/ha,0 (Herbicidal ratio of 5% or less (almost no effect))
CCN(C)c1nnc2c(C(=O)Nc3nnnn3C)ccc(C(F)(F)F)n12 [2-088],"herbicidal effect, J (Alopecurus myosuroides)",Alopecurus myosuroides; [3],3 (Herbicidal ratio of 40% or more and less than 70%)
same,"herbicidal effect, G (Setaria viridis)",Setaria viridis; [3],5 (Herbicidal ratio of 90% or more (almost completely withered))
same,"herbicidal effect, Q (Galium spurium)",Galium spurium; [3],3 (Herbicidal ratio of 40% or more and less than 70%)
same,"herbicidal effect, N (Amaranthus retroflexus)",Amaranthus retroflexus; [3],5 (Herbicidal ratio of 90% or more (almost completely withered))
same,"herbicidal effect, P (Stellaria media)",Stellaria media; [3],5 (Herbicidal ratio of 90% or more (almost completely withered))
same,"herbicidal effect, F (Digitaria ciliaris)",Digitaria ciliaris; [3],5 (Herbicidal ratio of 90% or more (almost completely withered))
same,"herbicidal effect, L (Apera spica-venti.)",Apera spica-venti.; [3],4 (Herbicidal ratio of 70% or more and less than 90%)
same,"herbicidal effect, R (Veronica persica)",Veronica persica; [3],4 (Herbicidal ratio of 70% or more and less than 90%)
same,"herbicidal effect, K (Lolium multiflorum Lam.)",Lolium multiflorum Lam.; [3],3 (Herbicidal ratio of 40% or more and less than 70%)
same,"herbicidal effect, I (Avena fatua)",Avena fatua; [3],4 (Herbicidal ratio of 70% or more and less than 90%)
same,"herbicidal effect, M (Abutilon theophrasti)",Abutilon theophrasti; [3],5 (Herbicidal ratio of 90% or more (almost completely withered))
same,b (effect on crop grade),[1]; application herbicide amount 141 g/ha,3 (Herbicidal ratio of 40% or more and less than 70%)
